Experimental data from patent publication US6861390B2, “Derivatives of UK-2A” (priority 2001, dated 2005).
Read-outs that look alike come from different tables or passages of the source.

How the values were obtained:
[1] = test system: Rhizoctonia solani (RHIZSO); experiment: microbe, parasite or virus in culture; format: cell-based; details: read-out: T10 RHIZSO in vitro Growth Inhibition
[2] = test system: Magnaporthe grisea (Pyricularia oryzae, PYRIOR); experiment: microbe, parasite or virus in culture; format: cell-based; details: read-out: T9 PYRIOR in vitro Growth Inhibition
Ustilago maydis (USTIMA) = experiment: microbe, parasite or virus in culture; format: cell-based; details: Mycosarcoma maydis, read-out: T12 USTIMA in vitro Growth Inhibition
[3] = test system: Leptosphaeria nodorum (LEPTNO); experiment: Glume Blotch of Wheat, whole plant 24 Hour Protectant (T2); details: Parastagonospora nodorum, read-out: T2 LEPTNO in vivo 1 Day Protectant, control of fungal infection
[4] = test system: Puccinia recondita (PUCCRT); experiment: Brown Rust of Wheat, whole plant 24 Hour Protectant (T5); details: read-out: T5 PUCCRT in vivo 1 Day Protectant, control of fungal infection
[5] = test system: Stagonospora nodorum (Leptosphaeria nodorum, LEPTNO); experiment: microbe, parasite or virus in culture; format: cell-based; details: Parastagonospora nodorum, read-out: T7 LEPTNO in vitro Growth Inhibition
[6] = test system: Erysiphe graminis (ERYSGT); experiment: Powdery Mildew of Wheat, whole plant 24 Hour Protectant (T1); details: Blumeria graminis, in Triticum aestivum, read-out: T1 ERYSGT in vivo 1 Day Protectant, control of fungal infection
Experimental: Compound formulation was accomplished by dissolving technical materials in acetone, with serial dilutions then made in acetone to obtain desired concentrations. Final treatment volumes were obtained by adding 9 volumes 0.01% Triton X-100.
Powdery Mildew of Wheat (Erysiphe graminis—ERYSGT) (24 Hour Protectant): Wheat (cultivar Monon) was grown in a soilless peat-based potting mixture (“Metromix”) and mineral soil (50/50 mix) until the seedlings were 10-20 cm tall. These plants were then sprayed to run-off with the test compound at a rate of 100 ppm. After 24 hours the test plants were inoculated by dusting with conidia from powdery mildew infected wheat plants. The plants were then transferred to the greenhouse until disease developed on the untreated control plants.

[7] = test system: Phytophthora infestans (PHYTIN); experiment: microbe, parasite or virus in culture; format: cell-based; details: in Secale cereale, read-out: T8 PHYTIN in vitro Growth Inhibition
[8] = test system: Mycosphaerella graminicola (Septoria tritici, SEPTTR); experiment: microbe, parasite or virus in culture; format: cell-based; details: Zymoseptoria tritici, read-out: T11 SEPTTR in vitro Growth Inhibition
[9] = test system: Phytophthora infestans (PHYTIN); experiment: whole plant or invertebrate; details: in Solanum lycopersicum, 24 h, read-out: T3 PHYTIN in vivo 1 Day Protectant, control of fungal infection
[10] = test system: Septoria tritici (SEPTTR); experiment: Leaf Blotch of Wheat, whole plant 24 Hour Protectant (T6); details: Zymoseptoria tritici; wheat (cultivar Monon), sprayed at 100 ppm, inoculated after 24 hours; read-out: T6 SEPTTR in vivo 1 Day Protectant, control of fungal infection
[11] = wheat (cultivar Yuma), sprayed at 100 ppm, inoculated after 24 hours

Row | Structure (SMILES) | inhibition at 25 ppm [1] [%] | inhibition at 25 ppm [2] [%] | inhibition at 25 ppm (Ustilago maydis (USTIMA)) [%] | pest or weed control at 100 ppm [3, 11] [%] | pest or weed control at 100 ppm [4, 11] [%] | inhibition at 25 ppm [5] [%] | pest or weed control at 100 ppm [6] [%] | inhibition at 25 ppm [7] [%] | inhibition at 25 ppm [8] [%] | pest or weed control at 100 ppm [9] [%] | pest or weed control at 100 ppm [10] [%] | pest or weed control at 100 ppm ([3]; 24 h) [%] | pest or weed control at 100 ppm ([4]; 24 h) [%]
1 | CCCOCOc1c(OC)ccnc1C(=O)N[C@H]1COC(=O)[C@H](Cc2ccccc2)[C@@H](OC(=O)C(C)C)[C@H](C)OC1=O [Compound 6] | < 80 | < 80 | < 80 | 75 to 100 | 75 to 100 | > 80 | 25 to 74 | < 80 | < 80 | < 25 | – | – | –
2 | COc1ccnc(C(=O)N[C@H]2COC(=O)[C@H](Cc3ccccc3)[C@@H](OC(=O)C(C)C)[C@H](C)OC2=O)c1OCOC(C)(C)C [Compound 8] | < 80 | < 80 | > 80 | 75 to 100 | 75 to 100 | > 80 | < 25 | < 80 | < 80 | < 25 | 75 to 100 | – | –
3 | COCCOCOc1c(OC)ccnc1C(=O)N[C@H]1COC(=O)[C@H](Cc2ccccc2)[C@@H](OC(=O)C(C)C)[C@H](C)OC1=O [Compound 11] | – | – | – | 75 to 100 | 75 to 100 | – | 25 to 74 | – | – | < 25 | – | – | –
4 | COCC(C)OCOc1c(OC)ccnc1C(=O)N[C@H]1COC(=O)[C@H](Cc2ccccc2)[C@@H](OC(=O)C(C)C)[C@H](C)OC1=O (stereo partly shown) [Compound 12] | > 80 | > 80 | > 80 | 75 to 100 | 75 to 100 | > 80 | 25 to 74 | < 80 | > 80 | < 25 | 75 to 100 | – | –
5 | COc1ccnc(C(=O)N[C@H]2COC(=O)[C@H](Cc3ccccc3)[C@@H](OC(=O)C(C)C)[C@H](C)OC2=O)c1OC(C)OC (stereo partly shown) [Compound 16] | < 80 | > 80 | < 80 | 75 to 100 | – | > 80 | < 25 | < 80 | > 80 | < 25 | – | – | –
6 | COc1ccnc(C(=O)N[C@H]2COC(=O)[C@H](Cc3ccccc3)[C@@H](OC(=O)C(C)C)[C@H](C)OC2=O)c1OCOC(=O)C(C)C [Compound 23] | < 80 | < 80 | > 80 | – | – | > 80 | 25 to 74 | < 80 | < 80 | < 25 | – | 75 to 100 | 75 to 100
7 | COc1ccnc(C(=O)N[C@H]2COC(=O)[C@H](Cc3ccccc3)[C@@H](OC(=O)C(C)C)[C@H](C)OC2=O)c1OCOC(=O)OC(C)C [Compound 47] | – | – | – | 75 to 100 | 75 to 100 | – | < 25 | – | – | < 25 | – | – | –
8 | C=CCO[C@H]1[C@H](C)OC(=O)[C@@H](NC(=O)c2nccc(OC)c2OCOC(C)=O)COC(=O)[C@@H]1Cc1ccccc1 [Compound 52] | > 80 | > 80 | < 80 | 75 to 100 | 75 to 100 | > 80 | < 25 | < 80 | > 80 | < 25 | – | – | –
9 | COc1ccnc(C(=O)N[C@H]2COC(=O)[C@H](Cc3ccccc3)[C@@H](OCC(C)C)[C@H](C)OC2=O)c1OCOCC(C)C [Compound 65] | – | – | – | 75 to 100 | 75 to 100 | – | < 25 | – | – | < 25 | 75 to 100 | – | –
10 | COCCOC(C)C(=O)OCOc1c(OC)ccnc1C(=O)N[C@H]1COC(=O)[C@H](Cc2ccccc2)[C@@H](OC(=O)C(C)C)[C@H](C)OC1=O (stereo partly shown) [Compound 66] | < 80 | < 80 | < 80 | 75 to 100 | 75 to 100 | < 80 | – | < 80 | < 80 | < 25 | – | – | –
11 | COc1ccnc(C(=O)N[C@H]2COC(=O)[C@H](Cc3ccccc3)[C@@H](OC(=O)C(C)C)[C@H](C)OC2=O)c1OCOC(=O)C(C)OC (stereo partly shown) [Compound 67] | < 80 | < 80 | > 80 | 75 to 100 | 75 to 100 | < 80 | – | < 80 | < 80 | < 25 | – | – | –
12 | CCOC(C)C(=O)OCOc1c(OC)ccnc1C(=O)N[C@H]1COC(=O)[C@H](Cc2ccccc2)[C@@H](OC(=O)C(C)C)[C@H](C)OC1=O (stereo partly shown) [Compound 68] | > 80 | < 80 | > 80 | 75 to 100 | 75 to 100 | > 80 | – | < 80 | > 80 | < 25 | – | – | –
13 | CCCOC(C)C(=O)OCOc1c(OC)ccnc1C(=O)N[C@H]1COC(=O)[C@H](Cc2ccccc2)[C@@H](OC(=O)C(C)C)[C@H](C)OC1=O (stereo partly shown) [Compound 69] | > 80 | > 80 | > 80 | 75 to 100 | 75 to 100 | > 80 | – | < 80 | > 80 | < 25 | – | – | –
14 | COc1ccnc(C(=O)N[C@H]2COC(=O)[C@H](Cc3ccccc3)[C@@H](OC(=O)C(C)C)[C@H](C)OC2=O)c1OCOC(=O)COCC(F)(F)F [Compound 70] | < 80 | < 80 | > 80 | 75 to 100 | 75 to 100 | > 80 | – | < 80 | < 80 | < 25 | – | – | –
15 | COc1ccnc(C(=O)N[C@H]2COC(=O)[C@H](Cc3ccccc3)[C@@H](OC)[C@H](C)OC2=O)c1OCOC(C)=O [Compound 71] | < 80 | > 80 | > 80 | – | – | > 80 | – | < 80 | > 80 | – | – | – | –
16 | COCCOCCOCC(=O)OCOc1c(OC)ccnc1C(=O)N[C@H]1COC(=O)[C@H](Cc2ccccc2)[C@@H](OC(=O)C(C)C)[C@H](C)OC1=O [Compound 75] | < 80 | > 80 | > 80 | – | – | > 80 | 75 to 100 | < 80 | > 80 | < 25 | – | – | –
